Experiments:
LAX3 (residues 44–470) [1] = biological target: T1, LAX3 (residues 44–470) (Arabidopsis thaliana, UniProt Q9CA25); assay: cryo-EM structure, […] Å; details: pH 7.5; 5 mM IAA; LMNG; central binding pocket, inward semi-occluded
T1 construct: N-terminally truncated, residues 44-470; C-terminal TEV site and His10 tag, cut with TEV; expressed in Saccharomyces cerevisiae DSY-5; LMNG/CHS; 47 kDa
T1 sequence (Q9CA25 44-470): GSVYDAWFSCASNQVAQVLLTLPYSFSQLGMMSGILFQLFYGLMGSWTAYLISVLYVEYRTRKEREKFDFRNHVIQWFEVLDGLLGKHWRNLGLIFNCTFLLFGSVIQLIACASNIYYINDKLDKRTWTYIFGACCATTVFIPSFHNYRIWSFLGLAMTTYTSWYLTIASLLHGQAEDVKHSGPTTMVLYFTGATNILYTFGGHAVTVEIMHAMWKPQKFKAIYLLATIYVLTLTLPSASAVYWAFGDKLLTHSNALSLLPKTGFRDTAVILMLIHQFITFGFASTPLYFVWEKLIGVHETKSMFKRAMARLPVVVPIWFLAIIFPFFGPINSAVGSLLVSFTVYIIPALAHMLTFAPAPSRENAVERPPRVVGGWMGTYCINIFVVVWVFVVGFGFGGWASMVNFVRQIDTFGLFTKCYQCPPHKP

LAX3 = biological target: T2, LAX3 (Arabidopsis thaliana, UniProt Q9CA25); assay: competition with 3H-IAA uptake into Xenopus oocytes; type: cell-based; details: 100 nM 3H-IAA; pH 6, room temperature, 8 min; competitive
T2 construct: full-length wild type, cRNA injected into Xenopus laevis oocytes
T2 sequence (Q9CA25 1-470): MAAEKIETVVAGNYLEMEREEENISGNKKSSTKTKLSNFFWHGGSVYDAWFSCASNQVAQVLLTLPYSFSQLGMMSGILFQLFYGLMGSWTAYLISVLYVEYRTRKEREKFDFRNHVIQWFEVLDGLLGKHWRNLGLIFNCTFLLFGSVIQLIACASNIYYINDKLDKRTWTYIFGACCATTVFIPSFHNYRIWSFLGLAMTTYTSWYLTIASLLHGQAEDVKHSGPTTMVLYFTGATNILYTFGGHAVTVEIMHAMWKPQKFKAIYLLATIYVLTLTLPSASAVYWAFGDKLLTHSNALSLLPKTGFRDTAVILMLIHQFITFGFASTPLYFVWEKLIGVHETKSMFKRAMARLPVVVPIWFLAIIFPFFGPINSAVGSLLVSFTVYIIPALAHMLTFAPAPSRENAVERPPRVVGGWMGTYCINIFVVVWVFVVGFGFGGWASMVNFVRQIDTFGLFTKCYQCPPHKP

LAX3 (residues 44–470) [2] = biological target: T1, LAX3 (residues 44–470); assay: cryo-EM structure, […] Å; details: pH 7.5; 5 mM 2-NOA; LMNG; central binding pocket, fully occluded

Compound | cryo-EM structure, 3.21 Å (LAX3 (residues 44–470) [1]) | inhibition of IAA uptake at 10 μM (LAX3) | cryo-EM structure, 2.88 Å (LAX3 (residues 44–470) [2])
O=C(O)Cc1c[nH]c2ccccc12 [IAA] | IAA-bound LAX3 inward semi-occluded: PDB 9H61 and EMD-51894 |  | 
O=C(O)COc1ccc2ccccc2c1 [2-NOA] |  | these data demonstrate a competitive effect of all three compounds | 2-NOA bound LAX3 fully occluded: PDB 9H63 and EMD-51896
O=C(O)COc1ccc(Cl)cc1Cl [2,4-D] |  | these data demonstrate a competitive effect of all three compounds | 
O=C(O)COc1cccc2ccccc12 [1-NOA] |  | these data demonstrate a competitive effect of all three compounds | 

Source: publication PMC12364708, “Structures and mechanism of the AUX/LAX transporters involved in auxin import” (Nature Plants, 2025)
